From paper PMC10303166, “Design, Synthesis, Biological Evaluation, and Molecular Docking Study of 4,6-Dimethyl-5-aryl/alkyl-2-[2-hydroxy-3-(4-substituted-1-piperazinyl)propyl]pyrrolo[3,4-c]pyrrole-1,3(2H,5H)-diones as Anti-Inflammatory Agents with Dual Inhibition of COX and LOX” (Pharmaceuticals, 2023)
Read-outs that look alike come from different tables or passages of the source.

Assays:
[1] = biological target: T1, COX-2 (Homo sapiens, UniProt P35354); test: Colorimetric cyclooxygenase inhibition assay (COX-2); assay type: biochemical; settings: for IC50: incubation for 2 min with the tested compounds at a concentration of 100 µM, mean (SD); for COX Selectivity Ratio IC50(COX-2)/IC50(COX-1): ratio COX-2 over COX-1
T1 sequence (P35354 18-604): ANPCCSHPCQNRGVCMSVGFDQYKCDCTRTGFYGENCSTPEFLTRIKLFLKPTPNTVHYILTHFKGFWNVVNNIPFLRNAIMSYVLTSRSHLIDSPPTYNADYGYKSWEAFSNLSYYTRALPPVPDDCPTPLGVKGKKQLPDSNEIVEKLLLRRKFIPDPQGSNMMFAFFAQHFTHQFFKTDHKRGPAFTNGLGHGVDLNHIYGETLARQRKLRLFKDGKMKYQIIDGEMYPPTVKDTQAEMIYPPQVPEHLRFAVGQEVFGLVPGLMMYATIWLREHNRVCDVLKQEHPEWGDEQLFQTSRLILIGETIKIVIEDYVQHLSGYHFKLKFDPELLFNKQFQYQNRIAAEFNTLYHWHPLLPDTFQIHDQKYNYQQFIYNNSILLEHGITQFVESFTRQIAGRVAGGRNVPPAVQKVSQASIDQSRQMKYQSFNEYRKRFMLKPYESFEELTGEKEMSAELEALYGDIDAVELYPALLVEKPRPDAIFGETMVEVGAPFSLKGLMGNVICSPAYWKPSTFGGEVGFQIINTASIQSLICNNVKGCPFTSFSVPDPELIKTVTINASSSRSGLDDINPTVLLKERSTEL
Experimental: COX peroxidase activity was evaluated by colorimetric evaluation of the occurrence of the oxidized form of N, N, N′, N′-tetramethyl-p-phenylenediamine (TMPD). The reduction of PGG2 (prostaglandin G2) to PGH2 is due to the oxidation of TMPD. […] The tested compounds wells included 110 μL Assay Buffer, 10 μL Hemin, and 40 μL solution of tested compounds, which was dissolved in DMSO in a final concentration of 10 mM. These samples were performed in three replicates for every compound. […] Subsequently, 20 μL substrate, i.e., arachidonic acid, was added. The entire plate was shaken for 5 min. The result is a change in color measured at 590 nm with a Varioskan LUX microplate reader (Thermo Scientific, Waltham, MA, USA).

[2] = system: NHDF cells; test: SRB viability assay on NHDF cells; assay type: cell-based; settings: Homo sapiens, 48 h incubation with NHDF cells, tested 10-100 µM, mean (SD)
Experimental: The NHDF (CC-2511) was purchased from Lonza, Basel. This line was derived from human dermal fibroblasts grown in 5% CO2 with 95% humidity at 37 °C. Cells were cultured with 10% FBS and 2 mM L-glutamine, 1.25 μg/mL Amphotericin B, and 100 μg/mL Gentamicin. Twice a week, the morphology and confluence were evaluated under microscopy. The confluence was above 70%, and the NHDF cells were subcultured with TrypLE solution.
The new 2-[2-hydroxy-3-(4-substituted-1-piperazinyl)propyl] derivatives were dissolved in DMSO to a concentration of 10 mM and stored at −20 °C. The samples were prepared in four different concentrations of compounds (10 µM, 25 µM, 50 µM, and 100 µM), so the concentration of DMSO for cells was […].
Viability evaluation was performed using the Sulforhodamine B (SRB) dye. The SRB assay was carried out 24 h after seeding. The culture plates were fixed with a cold TCA solution with a final concentration of 10% w/v for 1 h at 4–8 °C. This plate was T0 control. T0 is cell before treatment tested compounds. The supernatant was removed from the culture. The compounds were added and incubated for 48 h at 5% CO2, 95% humidity, and 37 °C. The culture was fixed with a cold TCA solution. The same condition was performed on the T0 plate. […] The absorbance was measured at 540 nm with a Varioskan LUX microplate reader (Thermo Scientific, Waltham, MA, USA).

[3] = biological target: 15-LOX (Glycine max, UniProt P08170); test: Lipoxygenase inhibitor screening assay; assay type: biochemical; settings: 15-LO, arachidonic acid substrate; mean (SD)
15-LOX, sequence (P08170 whole entry): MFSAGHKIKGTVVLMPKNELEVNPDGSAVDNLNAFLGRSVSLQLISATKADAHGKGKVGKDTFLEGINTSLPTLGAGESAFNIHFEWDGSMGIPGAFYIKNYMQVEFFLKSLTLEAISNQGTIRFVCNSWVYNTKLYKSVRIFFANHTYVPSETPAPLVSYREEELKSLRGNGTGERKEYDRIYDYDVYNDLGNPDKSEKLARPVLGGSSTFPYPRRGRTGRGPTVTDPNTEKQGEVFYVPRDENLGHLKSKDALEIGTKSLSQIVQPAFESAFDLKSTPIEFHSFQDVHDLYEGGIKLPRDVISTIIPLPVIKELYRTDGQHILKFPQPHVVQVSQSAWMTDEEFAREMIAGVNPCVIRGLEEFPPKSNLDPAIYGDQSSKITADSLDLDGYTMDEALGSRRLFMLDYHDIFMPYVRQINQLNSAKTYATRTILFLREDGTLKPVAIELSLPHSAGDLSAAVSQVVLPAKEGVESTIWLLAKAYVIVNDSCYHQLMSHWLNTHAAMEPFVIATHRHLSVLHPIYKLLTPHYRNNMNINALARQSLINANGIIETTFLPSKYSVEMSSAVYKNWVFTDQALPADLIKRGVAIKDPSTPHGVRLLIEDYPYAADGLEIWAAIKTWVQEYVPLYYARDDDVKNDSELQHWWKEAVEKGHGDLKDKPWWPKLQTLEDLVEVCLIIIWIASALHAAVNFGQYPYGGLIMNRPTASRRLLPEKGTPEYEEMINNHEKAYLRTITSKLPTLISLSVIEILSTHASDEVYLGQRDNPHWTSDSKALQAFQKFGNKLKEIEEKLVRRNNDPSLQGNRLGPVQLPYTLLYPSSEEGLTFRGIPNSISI
Experimental: The assay detects and measures the hydroperoxides produced in the lipoxygenation reduction using a purified lipoxygenase (LO). Blank wells were prepared that contained 100 μL Assay buffer. The positive control included 10 μL 1x assay buffer and 90 μL 15-LO, but 100% of the Initial activity samples contained 90 μL 15-LO and 10 μL methanol. Samples with test compounds were prepared in triplicate, containing 90 µL of 15-LO and 10 µL of test compound at the assayed concentration of 10 mM. All samples prepared in this way were incubated for 5 min at room temperature. Subsequently, the substrate, i.e., arachidonic acid, was added. The entire test plate was shaken for 10 min. 100 µL of chromogen was added to the samples. The entire plate was shaken for 5 min. The absorbance was read at 490 nm in a VariuScan microplate reader.

[4] = set-up: method as in PMID 10683864; settings: "hot plate" test; cited from earlier work
[5] = set-up: method as in PMID 10683864; settings: "writhing syndrome" test; cited from earlier work

SMILES	IC50 [1] [µM]	COX Selectivity Ratio IC50(COX-2)/IC50(COX-1) [1]	melting point [°C]	IC50 [2] [µM]	Lipoxygenase Inhibition Assay IC50 LOX [3]	Analgesic activity: acted up to the dose (fraction of LD50) [4]	Analgesic activity: acted up to the dose (fraction of LD50) [5]
CCOc1ccccc1N1CCN(CC(O)CN2C(=O)c3c(c(C)n(-c4cccc(Cl)c4)c3C)C2=O)CC1 (stereo not drawn) [3g, 4,6-dimethyl-5-(3-chlorophenyl)-2-[2-hydroxy-3-[4-(o-ethoxyphenyl)piperazin-1-yl]propyl]pyrrolo[3,4-c]pyrrole-1,3(2H,5H)-dione]	60.55 ± 0.09	0.70	129 to 131	–	–	–	–
CCCCn1c(C)c2c(c1C)C(=O)N(CC(O)CN1CCN(c3ccc(C)cc3)CC1)C2=O (stereo not drawn) [3a, 4,6-dimethyl-5-butyl-2-[2-hydroxy-3-[4-(p-methylphenyl)piperazin-1-yl]propyl]pyrrolo[3,4-c]pyrrole-1,3(2H,5H)-dione]	60.16 ± 0.08	0.73	116 to 118	–	–	–	–
Cc1c2c(c(C)n1-c1cccc(Cl)c1)C(=O)N(CC(O)CN1CCN(S(C)(=O)=O)CC1)C2=O (stereo not drawn) [3n, 4,6-dimethyl-5-(3-chlorophenyl)-2-[2-hydroxy-3-(N-methylsulphonylpiperazin-1-yl)-propyl]pyrrolo[3,4-c]pyrrole-1,3(2H,5H)-dione]	60.25 ± 0.07	0.71	119 to 122	–	–	–	–
CCCCn1c(C)c2c(c1C)C(=O)N(CC(O)CN1CCN(c3ccccc3C#N)CC1)C2=O (stereo not drawn) [3f, 4,6-dimethyl-5-butyl-2-[2-hydroxy-3-[4-(o-cyjanophenyl)piperazin-1-yl]propyl]pyrrolo[3,4-c]pyrrole-1,3(2H,5H)-dione]	60.36 ± 0.06	–	154 to 156	–	higher activity against LOX than Zileuton	–	–
Cc1c2c(c(C)n1-c1cccc(Cl)c1)C(=O)N(CC(O)CN1CCN(c3ncccn3)CC1)C2=O (stereo not drawn) [3j, 4,6-dimethyl-5-(3-chlorophenyl)-2-[2-hydroxy-3-(4-pyrimidynylpiperazin-1-yl)propyl]pyrrolo[3,4-c]pyrrole-1,3(2H,5H)-dione]	60.28 ± 0.02	0.79	179 to 181	–	–	–	–
Cc1c2c(c(C)n1-c1ccccc1)C(=O)N(CC(O)CN1CCN(c3ccccc3)CC1)C2=O (stereo not drawn) [II]	–	–	–	–	–	1/20	1/40
CCCCn1c(C)c2c(c1C)C(=O)N(CC(O)CN1CCN(c3ccccc3)CC1)C2=O (stereo not drawn) [Compound I]	–	–	–	–	–	1/20	1/80
CCCCn1c(C)c2c(c1C)C(=O)N(CC(O)CN1CCN(c3ncccn3)CC1)C2=O (stereo not drawn) [3k, 4,6-dimethyl-5-butyl-2-[2-hydroxy-3-(4-pyrimidynyl-1-piperazinyl)propyl]pyrrolo[3,4-c]pyrrole-1,3(2H,5H)-dione]	60.83 ± 0.01	0.73	182 to 184	–	–	–	–
Cc1c2c(c(C)n1-c1ccccc1)C(=O)N(CC(O)CN1CCN(S(C)(=O)=O)CC1)C2=O (stereo not drawn) [3m, 4,6-dimethyl-5-phenyl-2-[2-hydroxy-3-(N-methylsulphonylpiperazin-1-yl)-propyl]pyrrolo[3,4-c]pyrrole-1,3(2H,5H)-dione]	61 ± 0.04	0.80	136 to 138	–	–	–	–

Now from value to compound, other results behind:

IC50 [1] [µM]	COX Selectivity Ratio IC50(COX-2)/IC50(COX-1) [1]	melting point [°C]	SMILES	IC50 [2] [µM]	Lipoxygenase Inhibition Assay IC50 LOX [3]	Analgesic activity: acted up to the dose (fraction of LD50) [4]	Analgesic activity: acted up to the dose (fraction of LD50) [5]
59.7 ± 0.03	0.73	143 to 145	Cc1c2c(c(C)n1-c1ccccc1)C(=O)N(CC(O)CN1CCN(c3ccc(F)cc3F)CC1)C2=O (stereo not drawn) [3d, 4,6-dimethyl-5-phenyl-2-[2-hydroxy-3-[4-(2,4-difluorophenyl)-1-piperazinyl]propyl]pyrrolo[3,4-c]pyrrole-1,3(2H,5H)-dione]	86.55 ± 0.05	–	–	–
59.77 ± 0.05	0.76	180 to 182	CCCCn1c(C)c2c(c1C)C(=O)N(CC(O)CN1CCN(c3ccc(Br)cc3)CC1)C2=O (stereo not drawn) [3b, 4,6-dimethyl-5-butyl-2-[2-hydroxy-3-[4-(p-bromophenyl)piperazin-1-yl]propyl]pyrrolo[3,4-c]pyrrole-1,3(2H,5H)-dione]	–	–	–	–
56.43 ± 0.03	0.64	139 to 141	CCCCn1c(C)c2c(c1C)C(=O)N(CC(O)CN1CCN(c3ccc(F)cc3F)CC1)C2=O (stereo not drawn) [3e, 4,6-dimethyl-5-butyl-2-[2-hydroxy-3-[4-(2,4-difluorophenyl)piperazin-1-yl]propyl]pyrrolo[3,4-c]pyrrole-1,3(2H,5H)-dione]	–	higher activity against LOX than Zileuton	–	–
59.34 ± 0.04	0.75	135 to 138	Cc1c2c(c(C)n1-c1ccccc1)C(=O)N(CC(O)CN1CCN(c3cccc(C(F)(F)F)c3)CC1)C2=O (stereo not drawn) [3h, 4,6-dimethyl-5-phenyl-2-[2-hydroxy-3-[4-(m-trifluoromethylphenyl)piperazin-1-yl]propyl]pyrrolo[3,4-c]pyrrole-1,3(2H,5H)-dione]	–	–	–	–
60.05 ± 0.03	0.76	182 to 184	Cc1c2c(c(C)n1-c1ccccc1)C(=O)N(CC(O)CN1CCN(c3ccc(F)cc3)CC1)C2=O (stereo not drawn) [3c, 4,6-dimethyl-5-phenyl-2-[2-hydroxy-3-[4-(p-fluorophenyl)piperazin-1-yl]propyl]pyrrolo[3,4-c]pyrrole-1,3(2H,5H)-dione]	–	–	–	–
59.42 ± 0.06	0.85	139 to 141	CCCCn1c(C)c2c(c1C)C(=O)N(CC(O)CN1CCN(S(C)(=O)=O)CC1)C2=O (stereo not drawn) [3o, 4,6-dimethyl-5-butyl-2-[2-hydroxy-3-(N-methylsulphonylpiperazin-1-yl)-propyl]pyrrolo[3,4-c]pyrrole-1,3(2H,5H)-dione]	49.47 ± 0.05	–	–	–
57.93 ± 0.02	0.71	–	Cc1c2c(c(C)n1-c1ccccc1)C(=O)N(CC(O)CN1CCN(c3ncccn3)CC1)C2=O (stereo not drawn) [3i, 4,6-dimethyl-5-phenyl-2-[2-hydroxy-3-(4-pyrimidynylpiperazin-1-yl)propyl]pyrrolo[3,4-c]pyrrole-1,3(2H,5H)-dione]	–	–	–	–
